Data published in article PMC10800876, “Evaluation of proline-rich antimicrobial peptides as potential lead structures for novel antimycotics against Cryptococcus neoformans” (Frontiers in Microbiology, 2024).
In brackets after ≈: the same amount, converted by molar mass. Read-outs that look alike come from different tables or passages of the source. Starred links: 1 amine or outer side, 2 acyl side, 3 side chain; linkers in the order of their positions; H or OH if unused. Non-standard residues stand in square brackets, D forms with d. Residues, ends and D or L forms follow the SMILES beside them. *: point of attachment. 5FAM = O=C1OC2(c3ccc(O)cc3Oc3cc(O)ccc32)c2ccc(C(=O)*)cc21; δOrn(α-TMG) = CN(C)C(=N[C@@H](CCCN[*:1])C(=O)[*:2])N(C)C; Ac6c = NC1(C(=O)O)CCCCC1; Orn = NCCC[C@H](N)C(=O)O

Experiments:
[1] = tested on: C. neoformans 1841 (serotype D); details: for MIC (μmol/L) 1841 24 h: 1841 (serotype D, 24 h, pH 7.5); for MIC (μmol/L) 1841 48 h: 1841 (serotype D, 48 h, pH 7.5); for activity of Cf-labeled peptide relative to the corresponding unlabeled peptide: C. neoformans 1841
[2] = tested on: C. neoformans H99 (serotype A); details: for MIC (μmol/L) H99 24 h: H99 (serotype A, 24 h)
[3] = tested on: C. neoformans KN99α (serotype A, mating type MATα); details: for MIC (μmol/L) KN99α 48 h: KN99α (serotype A, mating type MATα, 48 h)
[4] = KN99α (serotype A, mating type MATα, 24 h)
[5] = C. neoformans 1841, read after 24 h, mean of three replicates (n = 3)
[6] = C. neoformans 1841, read after 48 h, mean of three replicates (n = 3)

Row | MIC (μmol/L) 1841 24 h [1] [µmol/L] | MIC (μmol/L) 1841 48 h [1] [µmol/L] | MIC (μmol/L) H99 24 h [2] [µmol/L] | MIC (μmol/L) H99 48 h ([2]; H99 (serotype A, 48 h)) [µmol/L] | MIC (μmol/L) KN99α 24 h [3, 4] [µmol/L] | MIC (μmol/L) KN99α 48 h [3] [µmol/L] | MIC (mg/L) 24 h, Cf-labeled peptides ([1]; 1841 (serotype D, 24 h)) [mg/L] | MIC (after 48 h) ([1]; 1841 (serotype D, 48 h)) [µM] | MIC (mg/L) 48 h, Cf-labeled peptides ([1]; 1841 (serotype D, 48 h)) [mg/L] | MIC (mg/L) 24 h, Cf-labeled peptides [1, 5] [mg/L] | MIC (mg/L) 48 h, Cf-labeled peptides [1, 6] [mg/L] | SMILES | activity of Cf-labeled peptide relative to the corresponding unlabeled peptide [1] | also measured
1 | > 61 | > 61 | > 61 | > 61 | > 61 | > 61 |  |  |  |  |  | CC[C@H](C)[C@H](NC(=O)[C@H](CCCNC(=N)N)NC(=O)[C@H](CC(C)C)NC(=O)[C@@H]1CCCN1C(=O)CN)C(=O)N[C@@H](Cc1ccc(O)cc1)C(=O)N[C@H](C(=O)N1CCC[C@H]1C(=O)N[C@@H](Cc1c[nH]cn1)C(=O)N1CCC[C@H]1C(=O)N1CCC[C@H]1C(=O)N1CCC[C@H]1C(=O)N[C@@H](CCCNC(=N)N)C(=O)N1CCC[C@H]1C(=O)N[C@@H](CC(N)=O)C(=O)N[C@@H](CCC(N)=O)C(=O)N[C@@H](CC(N)=O)C(=O)N[C@@H](CCCNC(=N)N)C(=O)O)C(C)C [Apidaecin 1b scr] (H-GPLRIYVPHPPPRPNQNR-OH) |  | 
2 | 1.0 (≈ 3.88 µg/mL) | 2.1 (≈ 8.15 µg/mL) | 1.0 (≈ 3.88 µg/mL) | 2.1 (≈ 8.15 µg/mL) | 1.0 to 2.1 | 2.1 (≈ 8.15 µg/mL) |  |  |  |  |  | CC[C@H](C)[C@H](NC(=O)CNC(=O)[C@H](CCC(=O)O)NC(=O)[C@H](CCCCN)NC(=O)[C@H](CC(C)C)NC(=O)[C@H](CCCCN)NC(=O)[C@H](CCCCN)NC(=O)[C@@H](NC(=O)CNC(=O)[C@H](CCC(N)=O)NC(=O)[C@H](CCCCN)NC(=O)[C@@H](NC(=O)[C@H](CCCCN)NC(=O)[C@H](CC(N)=O)NC(=O)[C@H](Cc1ccccc1)NC(=O)[C@H](Cc1ccccc1)NC(=O)[C@H](CCC(N)=O)NC(=O)[C@H](CCCCN)NC(=O)[C@H](CC(C)C)NC(=O)[C@@H](NC(=O)[C@@H]1CCCN1C(=O)[C@H](CCC(N)=O)NC(=O)[C@@H]1CCCN1C(=O)[C@H](CCC(=O)O)NC(=O)[C@@H](N)CCC(N)=O)C(C)C)[C@@H](C)CC)[C@@H](C)CC)C(=O)N[C@@H](CCCCN)C(=O)N[C@@H](CCC(=O)O)C(=O)NCC(=O)NCC(=O)N[C@@H](CCCCN)C(=O)N[C@@H](CCCNC(=N)N)C(=O)N[C@@H](CC(C)C)C(=O)N[C@@H](CC(C)C)C(=O)NCC(=O)O [CRAMP rev] (H-QEPQPVLKQFFNKIKQGIKKLKEGIKEGGKRLLG-OH) |  | MIC (mg/L) KN99α 24 h [3, 4]: 4 to 8 mg/L
3 |  |  |  |  |  |  | 32 (≈ 12.1 µM) | 7.0 (≈ 18.5 µg/mL) | 32 to 64 |  |  | CC[C@H](C)[C@H](NC(=O)[C@H](Cc1ccc(O)cc1)NC(=O)[C@@H](NC(=O)[C@@H]1CCCN1C(=O)[C@H](CCCNC(=N)N)NC(=O)[C@H](CC(N)=O)NC(=O)[C@H](CC(N)=O)NC(=O)[C@H](CCCNC(=O)c1ccc2c(c1)C(=O)OC21c2ccc(O)cc2Oc2cc(O)ccc21)N=C(N(C)C)N(C)C)C(C)C)C(=O)N1CCC[C@H]1C(=O)N[C@@H](CCCNC(=N)N)C(=O)N1CCC[C@H]1C(=O)N[C@@H](CCCNC(=N)N)C(=O)N1CCC[C@H]1C(=O)N1CCC[C@H]1C(=O)N[C@@H](Cc1c[nH]cn1)C(=O)N1CCC[C@H]1C(=O)N[C@@H](CCCNC(=N)N)C(=O)N[C@@H](CC(C)C)C(N)=O [Cf-Api88] (5FAM-[δOrn(α-TMG)]NNRPVYIPRPRPPHPRL-NH2) | slightly less active | 
4 |  |  |  |  |  |  | > 64 | 28 (≈ 74.2 µg/mL) | > 64 |  |  | CC[C@H](C)[C@H](NC(=O)[C@H](Cc1ccc(O)cc1)NC(=O)[C@@H](NC(=O)[C@@H]1CCCN1C(=O)[C@H](CCCNC(=N)N)NC(=O)[C@H](CC(N)=O)NC(=O)[C@H](CC(N)=O)NC(=O)[C@H](CCCNC(=O)c1ccc2c(c1)C(=O)OC21c2ccc(O)cc2Oc2cc(O)ccc21)N=C(N(C)C)N(C)C)C(C)C)C(=O)N1CCC[C@H]1C(=O)N[C@@H](CCCNC(=N)N)C(=O)N1CCC[C@H]1C(=O)N[C@@H](CCCNC(=N)N)C(=O)N1CCC[C@H]1C(=O)N1CCC[C@H]1C(=O)N[C@@H](Cc1c[nH]cn1)C(=O)N1CCC[C@H]1C(=O)N[C@@H](CCCNC(=N)N)C(=O)N[C@@H](CC(C)C)C(=O)O [Cf-Api137] (5FAM-[δOrn(α-TMG)]NNRPVYIPRPRPPHPRL-OH) | slightly less active | 
5 |  |  |  |  |  |  |  | 3.2 (≈ 9.21 µg/mL) |  | 4 (≈ 1.39 µM) | 4 (≈ 1.39 µM) | CC[C@H](C)[C@H](NC(=O)[C@H](CCCNC(=O)c1ccc2c(c1)C(=O)OC21c2ccc(O)cc2Oc2cc(O)ccc21)N=C(N(C)C)N(C)C)C(=O)N[C@@H](CCCN)C(=O)N[C@H](C(=O)N[C@@H](CCCN)C(=O)N[C@@H](CCCNC(=N)N)C(=O)N1CCC[C@H]1C(=O)N[C@H](C(=O)N[C@@H](Cc1ccc(O)cc1)C(=O)N[C@@H](CCCN)C(=O)N1CCC[C@H]1C(=O)N[C@@H](CCCNC(=N)N)C(=O)N1CCC[C@H]1C(=O)N[C@@H](CCCNC(=N)N)C(=O)N1CCC[C@H]1C(=O)N1CCC[C@H]1C(=O)N[C@@H](Cc1c[nH]cn1)C(=O)N1CCC[C@H]1C(=O)N[C@@H](CCCNC(=N)N)C(=O)N[C@@H](CC(C)C)C(=O)O)C(C)C)[C@@H](C)CC [Cf-Api795] (5FAM-[δOrn(α-TMG)]I[Orn]I[Orn]RPVY[Orn]PRPRPPHPRL-OH) | slightly more active | 
6 |  |  |  |  |  |  | >128 | > 61 | >128 |  |  | CC[C@H](C)[C@H](NC(=O)[C@H](Cc1ccc(O)cc1)NC(=O)[C@@H](NC(=O)[C@@H]1CCCN1C(=O)[C@H](CCCNC(=N)N)NC(=O)[C@H](CC(N)=O)NC(=O)[C@H](CC(N)=O)NC(=O)CNC(=O)c1ccc2c(c1)C(=O)OC21c2ccc(O)cc2Oc2cc(O)ccc21)C(C)C)C(=O)N1CCC[C@H]1C(=O)N[C@@H](CCC(N)=O)C(=O)N1CCC[C@H]1C(=O)N[C@@H](CCCNC(=N)N)C(=O)N1CCC[C@H]1C(=O)N1CCC[C@H]1C(=O)N[C@@H](Cc1c[nH]cn1)C(=O)N1CCC[C@H]1C(=O)N[C@@H](CCCNC(=N)N)C(=O)N[C@@H](CC(C)C)C(=O)O [Cf-Apidaecin 1b] (5FAM-GNNRPVYIPQPRPPHPRL-OH) |  | 
7 |  |  |  |  |  |  |  | 1.6 (≈ 4.55 µg/mL) |  | 8 (≈ 2.81 µM) | 8 (≈ 2.81 µM) | CC(C)C[C@H](NC(=O)[C@H](Cc1ccc(O)cc1)NC(=O)[C@@H]1CCCN1C(=O)[C@H](CCCNC(=N)N)NC(=O)[C@@H]1CCCN1C(=O)[C@H](CCCCN)NC(=O)[C@H](CCCCN)NC(=O)[C@@H]1CCCN1C(=O)[C@H](CCCNC(=N)N)NC(=O)C1(NC(=O)c2ccc3c(c2)C(=O)OC32c3ccc(O)cc3Oc3cc(O)ccc32)CCCCC1)C(=O)N1CCC[C@H]1C(=O)N[C@@H](CCCNC(=N)N)C(=O)N1CCC[C@H]1C(=O)N[C@@H](CCCNC(=N)N)C(=O)N1CCC[C@H]1C(=O)N1CCC[C@H]1C(=O)N[C@@H](CCCNC(=N)N)C(=O)N1CCC[C@H]1C(=O)N[C@H](C(=O)N[C@@H](CCCNC(=N)N)C(N)=O)C(C)C [Cf-Chex1Arg20 D4K] (5FAM-[Ac6c]RPKKPRPYLPRPRPPRPVR-NH2) | slightly less active | 
8 |  |  |  |  |  |  |  | 3.2 (≈ 9.07 µg/mL) |  | 4 (≈ 1.41 µM) | 4 (≈ 1.41 µM) | CC(C)C[C@H](NC(=O)[C@H](Cc1ccc(O)cc1)NC(=O)[C@@H]1CCCN1C(=O)[C@H](CCCNC(=N)N)NC(=O)[C@@H]1CCCN1C(=O)[C@H](CCCCN)NC(=O)[C@H](CC(=O)O)NC(=O)[C@@H]1CCCN1C(=O)[C@H](CCCNC(=N)N)NC(=O)C1(NC(=O)c2ccc3c(c2)C(=O)OC32c3ccc(O)cc3Oc3cc(O)ccc32)CCCCC1)C(=O)N1CCC[C@H]1C(=O)N[C@@H](CCCNC(=N)N)C(=O)N1CCC[C@H]1C(=O)N[C@@H](CCCNC(=N)N)C(=O)N1CCC[C@H]1C(=O)N1CCC[C@H]1C(=O)N[C@@H](CCCNC(=N)N)C(=O)N1CCC[C@H]1C(=O)N[C@H](C(=O)N[C@@H](CCCNC(=N)N)C(N)=O)C(C)C [Cf-Chex1Arg20] (5FAM-[Ac6c]RPDKPRPYLPRPRPPRPVR-NH2) | slightly more active | 
9 |  |  |  |  |  |  | 4 to 8 | 6.7 (≈ 18.4 µg/mL) | 4 to 8 |  |  | CC[C@H](C)[C@H](NC(=O)[C@@H](CCCNC(=N)N)NC(=O)[C@H](CCCNC(=N)N)NC(=O)[C@@H]1CCCN1C(=O)[C@@H]1CCCN1C(=O)[C@H](CCCNC(=N)N)NC(=O)[C@@H]1CCCN1C(=O)[C@H](CCCNC(=N)N)NC(=O)[C@@H]1CCCN1C(=O)[C@H](CC(C)C)NC(=O)[C@H](Cc1ccc(O)cc1)NC(=O)[C@@H]1CCCN1C(=O)[C@@H]1CCCN1C(=O)[C@H](CCCCN)NC(=O)[C@H](CC(=O)O)NC(=O)[C@@H](NC(=O)c1ccc2c(c1)C(=O)OC21c2ccc(O)cc2Oc2cc(O)ccc21)C(C)C)C(=O)N[C@@H](Cc1ccc(O)cc1)C(=O)N[C@@H](CC(N)=O)C(=O)N[C@H](CCCNC(=N)N)C(N)=O [Cf-Onc112] (5FAM-VDKPPYLPRPRPPR[dR]IYN[dR]-NH2) | slightly more active | 
10 | 3.2 (≈ 7.92 µg/mL) | 3.2 (≈ 7.92 µg/mL) | 3.2 (≈ 7.92 µg/mL) | 3.2 to 6.5 | 3.2 (≈ 7.92 µg/mL) | 6.5 (≈ 16.1 µg/mL) |  |  |  |  |  | CC(C)C[C@H](NC(=O)[C@@H]1CCCN1C(=O)[C@H](CCCNC(=N)N)NC(=O)[C@@H]1CCCN1C(=O)[C@H](CCCNC(=N)N)NC(=O)[C@@H]1CCCN1C(=O)[C@@H]1CCCN1C(=O)[C@H](CCCNC(=N)N)NC(=O)[C@@H]1CCCN1C(=O)[C@@H](NC(=O)[C@@H](N)CCCNC(=N)N)C(C)C)C(=O)N[C@@H](Cc1ccc(O)cc1)C(=O)N1CCC[C@H]1C(=O)N[C@@H](CCCNC(=N)N)C(=O)N1CCC[C@H]1C(=O)N[C@@H](CCCCN)C(=O)N[C@@H](CC(=O)O)C(=O)N1CCC[C@H]1C(=O)N[C@@H](CCCNC(=N)N)C(=O)NC1(C(N)=O)CCCCC1 [Chex1Arg20 rev] (H-RVPRPPRPRPLYPRPKDPR[Ac6c]-NH2; N-terminus assumed) |  | MIC (mg/L) H99 48 h ([2]; H99 (serotype A, 48 h)): 8 to 16 mg/L
